The target in this assay is T1, purified human Factor XIa (Homo sapiens, UniProt P03951).
T1 construct: purified human Factor XIa; purchased Sekisui Diagnostics
Description: Factor XIa Assay (fluorogenic substrate Z-Gly-Pro-Arg-AFC). It is filed as biochemical. As to conditions: purified human Factor XIa 40 pM; Z-Gly-Pro-Arg-AFC 100 μM; 50 mM HEPES pH 7.4; read-out: hFXIa Ki (nM), Factor XIa inhibition.

The structures appear in SMILES notation.

As a reminder, the Ki is a measure of affinity in units of concentration, obtained from inhibition or displacement.

T1 sequence (P03951 388-625 limits assumed): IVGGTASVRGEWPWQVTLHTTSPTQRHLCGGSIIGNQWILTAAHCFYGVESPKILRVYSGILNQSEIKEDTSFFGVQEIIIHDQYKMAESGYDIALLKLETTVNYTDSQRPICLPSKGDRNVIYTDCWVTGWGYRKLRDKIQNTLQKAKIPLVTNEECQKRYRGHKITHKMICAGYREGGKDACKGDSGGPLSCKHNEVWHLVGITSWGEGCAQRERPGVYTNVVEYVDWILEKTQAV
T1 sequence (P03951 19-387 partner limits assumed): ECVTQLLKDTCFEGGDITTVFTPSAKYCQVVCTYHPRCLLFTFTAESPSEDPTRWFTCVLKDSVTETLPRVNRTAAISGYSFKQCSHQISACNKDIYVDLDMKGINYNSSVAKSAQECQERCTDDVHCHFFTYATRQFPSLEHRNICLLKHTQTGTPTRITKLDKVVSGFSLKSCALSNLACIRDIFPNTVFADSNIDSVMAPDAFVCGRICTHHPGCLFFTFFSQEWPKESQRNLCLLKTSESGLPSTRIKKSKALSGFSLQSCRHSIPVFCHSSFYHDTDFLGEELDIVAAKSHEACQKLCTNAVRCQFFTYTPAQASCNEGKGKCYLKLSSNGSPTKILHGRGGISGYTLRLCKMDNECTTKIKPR

With `O=C(Nc1ccc2[nH]ncc2c1)C1C(c2ccccc2)CCCN1C(=O)/C=C/c1cc(Cl)ccc1-n1cnnn1` (stereo not drawn) [Example 1-59, (E)-1-(3-(5-chloro-2-(1H-tetrazol-1-yl)phenyl)acryloyl)-N-(1H-indazol-5-yl)-3-phenylpiperidine-2-carboxamide], the Ki stood at 13.9 nM.

Consider `O=C(Nc1ccc2[nH]ncc2c1)C1C(c2ccccc2)CCCN1C(=O)/C=C/c1cc(Cl)ccc1-n1cnnn1` (stereo not drawn) [Example 1-60, (E)-1-(3-(5-chloro-2-(1H-tetrazol-1-yl)phenyl)acryloyl)-N-(1H-indazol-5-yl)-3-phenylpiperidine-2-carboxamide], for which the Ki was 145 nM.

Regarding `O=C(Nc1ccc2cn[nH]c2c1)C1C(c2ccccc2)CCCN1C(=O)/C=C/c1cc(Cl)ccc1-n1cnnn1` (stereo not drawn) [Example 1-61, (E)-1-(3-(5-chloro-2-(1H-tetrazol-1-yl)phenyl)acryloyl)-N-(1H-indazol-6-yl)-3-phenylpiperidine-2-carboxamide], the Ki was 91.6 nM.

For `O=C1Cc2cc(-c3cnc([C@H]4[C@@H](c5ccccc5)CCCN4C(=O)/C=C/c4cc(Cl)ccc4-n4cnnn4)[nH]3)ccc2N1` [Example 1-62, 2-((2R,3R)-1-((E)-3-(5-chloro-2-(1H-tetrazol-1-yl)phenyl)acryloyl)-3-phenylpiperidin-2-yl)-5-(2-oxoindolin-5-yl)-1H-imidazol-3-ium 2,2,2-trifluoroacetate], the inhibitory constant (Ki) was over 10000 nM.

Take `O=C1Cc2cc(-c3cnc([C@@H]4[C@H](c5ccccc5)CCCN4C(=O)/C=C/c4cc(Cl)ccc4-n4cnnn4)[nH]3)ccc2N1` [Example 1-63, 5-(2-((2S,3S)-1-((E)-3-(5-chloro-2-(1H-tetrazol-1-yl)phenyl)acryloyl)-3-phenylpiperidin-2-yl)-1H-imidazol-5-yl)indolin-2-one]: the Ki stood at 207 nM.

Take `COC(=O)Nc1ccc(-c2nc([C@H]3[C@@H](c4ccccc4)CCCN3C(=O)/C=C/c3cc(Cl)ccc3-n3cnnn3)[nH]c2Cl)cc1` [Example 1-64, methyl (4-(5-chloro-2-((2R,3R)-1-((E)-3-(5-chloro-2-(1H-tetrazol-1-yl)phenyl)acryloyl)-3-phenylpiperidin-2-yl)-1H-imidazol-4-yl)phenyl)carbamate]: the Ki was over 10000 nM.

With `O=C(Nc1ccc2[nH]ncc2c1)[C@@H]1[C@H](c2ccccc2)CCCN1C(=O)/C=C/c1cc(Cl)ccc1-n1cnnn1` [Example 1-65, (2S,3S)-1-((E)-3-(5-chloro-2-(1H-tetrazol-1-yl)phenyl)acryloyl)-N-(1H-indazol-5-yl)-3-phenylpiperidine-2-carboxamide], the inhibitory constant (Ki) was found to be 31.4 nM.

As for `COC(=O)Nc1ccc(-c2c[nH]c([C@@H]3[C@H](CO[Si](C)(C)C(C)(C)C)CCCN3C(=O)/C=C/c3cc(Cl)ccc3-n3cnnn3)n2)cc1` [Example 1-66, methyl (4-(2-((2S,3R)-3-(((tert-butyldimethylsilyl)oxy)methyl)-1-((E)-3-(5-chloro-2-(1H-tetrazol-1-yl)phenyl)acryloyl)piperidin-2-yl)-1H-imidazol-4-yl)phenyl)carbamate], the Ki was determined as 3910 nM.

Take `COC(=O)Nc1ccc(-c2c[nH]c([C@@H]3[C@H](CO)CCCN3C(=O)/C=C/c3cc(Cl)ccc3-n3cnnn3)n2)cc1` [Example 1-67, methyl (4-(2-((2S,3R)-1-((E)-3-(5-chloro-2-(1H-tetrazol-1-yl)phenyl)acryloyl)-3-(hydroxymethyl)piperidin-2-yl)-1H-imidazol-4-yl)phenyl)carbamate]: the Ki came to 2640 nM.

In the case of `O=C(/C=C/c1cc(Cl)ccc1-n1cnnn1)N1CCC[C@@H](c2ccccc2)[C@H]1c1nc2cc(F)ccc2[nH]1` [Example 1-68, (E)-3-(5-chloro-2-(1H-tetrazol-1-yl)phenyl)-1-((2S,3S)-2-(5-fluoro-1H-benzo[d]imidazol-2-yl)-3-phenylpiperidin-1-yl)prop-2-en-1-one], the Ki was 428 nM.

Regarding `O=C(O)c1ccc(NC(=O)C2CCC(c3ccccc3)CN2C(=O)/C=C/c2cc(Cl)ccc2-n2cnnn2)cc1` (stereo not drawn) [Example 1-71, (E)-4-(1-(3-(5-chloro-2-(1H-tetrazol-1-yl)phenyl)acryloyl)-5-phenylpiperidine-2-carboxamido)benzoic acid], the Ki came out at 2610 nM.

In the case of `O=C(NC12CCC(C(=O)O)(CC1)CC2)[C@@H]1[C@H](c2ccccc2)CCCN1C(=O)/C=C/c1cc(Cl)ccc1-n1cnnn1` [Example 1-72, 4-((2S,3S)-1-((E)-3-(5-chloro-2-(1H-tetrazol-1-yl)phenyl)acryloyl)-3-phenylpiperidine-2-carboxamido)bicyclo[2.2.2]octane-1-carboxylic acid], the Ki amounted to 63.6 nM.

The record behind these values is patent publication US20160229839A1, “Factor XIa Inhibitors” (Merck Sharp & Dohme Corp., priority 2013, published 2016).
